Source: patent publication US7226730B1, “Transgenic animals and cell lines for screening drugs effective for the treatment or prevention of Alzheimer's Disease” (The General Hospital Corporation, priority 1997, dated 2007)

Test system: CYZ neuronal cells stably transfected with AD7c-NTP
Experiment: Crystal Violet viability assay in IPTG-induced AD7c-NTP expressing neuronal cells
Conditions: for effect on nitric oxide synthase toxicity attributable to AD7c-NTP expression / effect on cell death (percent change in viability, induced over uninduced): CYZ cells induced to express AD7c-NTP, FIG. 12; for cell viability under oxidative stress toxins: LacB and LacF cells, 3 mM IPTG 24 or 48 hrs, toxin 6 or 24 hrs, vs LacA-control, FIGS. 10A and 10B
Method: AD7c-NTP was cloned into a Lac-Switch expression vector (Stratgene), and CYZ neuronal cells were stably transformed with the construct. Several cell lines were selected that expressed AD7c-NTP at various levels, Lac A-Lac F, after induction of protein expression with IPTG.
Briefly, 10^4 cells/well were seeded into 96-well plates, and were induced to express AD7c-NTP for a period of 6–18 hrs; additionally, in some experiments, cells were exposed to toxins or protective agents for a similar period of time. At the end the treatment period, cells were fixed, permeabilized and immunostained with the appropriate antibody following the ABS procedure. Quantitation was done by incubating cells with a soluble chromagen, stopping the reaction with 2M H2SO4 and determining chromagen absorbance in an automated ELISA reading machine.
For Experiments determining cell viability, after culture and treatment as for the MICE assay, culture media was replaced with a Crystal Violet/PBS/formalin solution. After staining, cells were rinsed thoroughly and lysed with a PBS/1% SDS solution, and absorbance was determined with an automated ELSA reader. Results were graphed as percent viability.

Row | SMILES | effect on nitric oxide synthase toxicity attributable to AD7c-NTP expression | effect on cell death (percent change in viability, induced over uninduced) | cell viability under oxidative stress toxins
1 | COC(=O)[C@@H](N)CCCNC(=N)N[N+](=O)[O-] [L-NAME] | inhibit or reduce |  | 
2 | CCN(CC)C(=S)S [diethyldithiocarbamic acid] |  | exacerbate cell death | increased hypersensitivity
3 | OO [Hydrogen peroxide] |  | exacerbate cell death | increased hypersensitivity
4 | N=C(N)NCCC[C@H](N)C(=O)O [L-arginine] | inhibit or reduce |  | 
